In patent US20230192618A1, “CRYSTALLINE SALT FORMS OF N-(4-(4-(CYCLOPROPYLMETHYL)PIPERAZINE-1-CARBONYL)PHENYL)QUINOLINE-8-SULFONAMIDE” (Agios Pharmaceuticals, Inc., priority 2019, published 2023):
Values belong to the compound of their own block, whether it stands above or below them.

Assays:
[1] = Crystalline stability by XRPD after 7 days at 40° C./75% RH; assay type: physicochemical; conditions: for Crystalline Stability (XRPD pattern): after 7 days at 40° C./75% RH
Text: (§1) The Rigaku Smart-Lab X-ray diffraction system was configured for reflection Bragg- Brentano geometry using a line source X-ray beam. The x-ray source was a Cu Long Fine Focus tube that was operated at 40 kV and 44 ma. That source provided an incident beam profile at the sample that changes from a narrow line at high angles to a broad rectangle at low angles. Beam conditioning slits were used on the line X-ray source to ensure that the maximum beam size was less than 10 mm both along the line and normal to the line. The Bragg-Brentano geometry was a para-focusing geometry controlled by passive divergence and receiving slits with the sample itself acting as the focusing component for the optics. The inherent resolution of Bragg-Brentano geometry was governed in part by the diffractometer radius and the width of the receiving slit used. Typically, the Rigaku Smart-Lab was operated to give peak widths of 0.1 °2θ or less. The axial divergence of the X-ray beam was controlled by 5.0-degree Soller slits in both the incident and diffracted beam paths.
(§2) Powder samples were prepared in a low background Si holder using light manual pressure to keep the sample surfaces flat and level with the reference surface of the sample holder. Each sample was analyzed from 2 to 40 °2θ using a continuous scan of 6 °2θ per minute with an effective step size of 0.02 °2θ.
(§3) The chemical purity analyzed by HPLC and crystalline stability by XRPD for each of the crystalline salt Forms A to M prepared according to the procedures described in Examples 1-13 are summarized in Table 14. In short, these salt forms all yielded a chemical purity higher than 99%.

[2] = Crystalline stability by XRPD after heating (removal of volatiles); assay type: physicochemical
Text: as §1, §2, §3

- crystalline stability by XRPD ([1]; 7 days at elevated temperature and relative humidity (e.g., 40° C./75% RH)): maintained their original forms
Compound: O=C(c1ccc(NS(=O)(=O)c2cccc3cccnc23)cc1)N1CCN(CC2CC2)CC1 [Form A]
- Crystalline Stability (XRPD pattern) ([1]; listed as Crystalline Besylate Salt FormA): no change in XRPD pattern after 7 days at 40° C./75% RH

Compound: O=C(c1ccc(NS(=O)(=O)c2cccc3cccnc23)cc1)N1CCN(CC2CC2)CC1 [Form B]
- Crystalline Stability (XRPD pattern) ([1]; listed as Crystalline Fumarate Salt Form B): no change in XRPD pattern after 7 days at 40° C./75% RH or after heating to 120 °C (removal of volatiles)
- Crystalline Stability (XRPD pattern) ([2]; after heating to 120° C. (removal of volatiles)): no change in XRPD pattern after 7 days at 40° C./75% RH or after heating to 120 °C (removal of volatiles)

Compound: O=C(c1ccc(NS(=O)(=O)c2cccc3cccnc23)cc1)N1CCN(CC2CC2)CC1 [Form C]
- Crystalline Stability (XRPD pattern) ([1]; listed as Crystalline Fumarate Salt Form C): no change in XRPD pattern after 7 days at 40° C./75% RH

Compound: O=C(c1ccc(NS(=O)(=O)c2cccc3cccnc23)cc1)N1CCN(CC2CC2)CC1 [Form D]
- Crystalline Stability (XRPD pattern) ([1]; listed as Crystalline Gentisate Salt Form D): no change in XRPD pattern after 7 days at 40° C./75% RH

Compound: O=C(c1ccc(NS(=O)(=O)c2cccc3cccnc23)cc1)N1CCN(CC2CC2)CC1 [Form E]
- Crystalline Stability (XRPD pattern) ([1]; listed as Crystalline Gentisate Salt Form E): significant changes in XRPD pattern after 7 days at 40° C./75% RH

Compound: O=C(c1ccc(NS(=O)(=O)c2cccc3cccnc23)cc1)N1CCN(CC2CC2)CC1 [Form F]
- Crystalline Stability (XRPD pattern) ([1]; listed as Crystalline Hydrochloride Salt Form F): no change in XRPD pattern after 7 days at 40° C./75% RH or after heating to 130 °C (removal of volatiles)
- Crystalline Stability (XRPD pattern) ([2]; after heating to 130° C. (removal of volatiles)): no change in XRPD pattern after 7 days at 40° C./75% RH or after heating to 130 °C (removal of volatiles)

Compound: O=C(c1ccc(NS(=O)(=O)c2cccc3cccnc23)cc1)N1CCN(CC2CC2)CC1 [Form G]
- Crystalline Stability (XRPD pattern) ([1]; listed as Crystalline Hydrochloride Salt Form G): unique XRPD pattern after 7 days at 40° C./75% RH

Compound: O=C(c1ccc(NS(=O)(=O)c2cccc3cccnc23)cc1)N1CCN(CC2CC2)CC1 [Form H]
- Crystalline Stability (XRPD pattern) ([1]; listed as Crystalline Maleate Salt Form H): no change in XRPD pattern after 7 days at 40° C./75% RH

Compound: O=C(c1ccc(NS(=O)(=O)c2cccc3cccnc23)cc1)N1CCN(CC2CC2)CC1 [Form I]
- Crystalline Stability (XRPD pattern) ([1]; listed as Crystalline Malonate Salt Form I): no change in XRPD pattern after 7 days at 40° C./75% RH

- Crystalline Stability (XRPD pattern) ([1]; listed as Crystalline Phosphate Salt Form J): additional peaks in XRPD pattern
- Crystalline Stability (XRPD pattern) ([2]; after heating to 175° C. (removal of volatiles)): no change in XRPD pattern
Compound: O=C(c1ccc(NS(=O)(=O)c2cccc3cccnc23)cc1)N1CCN(CC2CC2)CC1 [Form J]

Compound: O=C(c1ccc(NS(=O)(=O)c2cccc3cccnc23)cc1)N1CCN(CC2CC2)CC1 [Form K]
- Crystalline Stability (XRPD pattern) ([1]; listed as Crystalline Phosphate Salt Form K): no change in XRPD pattern after 7 days at 40° C./75% RH

- Crystalline Stability (XRPD pattern) ([1]; listed as Crystalline Tartrate Salt Form L): unique XRPD pattern
- Crystalline Stability (XRPD pattern) ([2]; after heating to 150° C. (removal of volatiles)): becomes non-crystalline
Compound: O=C(c1ccc(NS(=O)(=O)c2cccc3cccnc23)cc1)N1CCN(CC2CC2)CC1 [Form L]

Compound: O=C(c1ccc(NS(=O)(=O)c2cccc3cccnc23)cc1)N1CCN(CC2CC2)CC1 [Form M]
- Crystalline Stability (XRPD pattern) ([1]; listed as Crystalline Tosylate Salt Form M): no change in XRPD pattern after 7 days at 40° C./75% RH
